Test system: MV-4-11 cells
Test: Gene expression microarray analysis (Affymetrix PrimeView) and GSEA
Assay type: cell-based, human
Design: RFU PODN (11730768_x_at) / Fold change /veh PODN (11730768_x_at) / RFU LINC00158 (11744669_a_at) / Fold change /veh LINC00158 (11744669_a_at) / RFU DUSP10 (11751237_a_at) / Fold change /veh DUSP10 (11751237_a_at) / RFU ID3 (11757404_x_at) / Fold change /veh ID3 (11757404_x_at) / RFU PLEKHG5 (11737974_s_at) / Fold change /veh PLEKHG5 (11737974_s_at) / RFU LRRC4B (11730491_at) / Fold change /veh LRRC4B (11730491_at) / RFU GIMAP4 (11747438_a_at) / Fold change /veh GIMAP4 (11747438_a_at) / RFU KRT8 (11758183_x_at) / Fold change /veh KRT8 (11758183_x_at) / RFU CNN1 (11734310_a_at) / Fold change /veh CNN1 (11734310_a_at) / RFU VPS37D (11726825_at) / Fold change /veh VPS37D (11726825_at) / RFU C10orf10 (11716522_x_at) / Fold change /veh C10orf10 (11716522_x_at) / RFU KIR2DL2 /// KIR2DL4 /// KIR2DL5A /// KIR2DL5B /// KIR2DS1 /// KIR2DS2 /// KIR2DS3 /// KIR2DS4 /// KIR3DL3 /// KIR3DL3 /// KIR3DS1 (11738374_at) / Fold change /veh KIR2DL2 /// KIR2DL4 /// KIR2DL5A /// KIR2DL5B /// KIR2DS1 /// KIR2DS2 /// KIR2DS3 /// KIR2DS4 /// KIR3DL3 /// KIR3DL3 /// KIR3DS1 (11738374_at) / RFU C1QL1 (11718748_at) / Fold change /veh C1QL1 (11718748_at) / RFU TMPRSS4 (11747572_a_at) / Fold change /veh TMPRSS4 (11747572_a_at) / RFU HAMP (11756126_x_at) / Fold change /veh HAMP (11756126_x_at) / RFU RNFT2 (11725882_a_at) / Fold change /veh RNFT2 (11725882_a_at) / RFU NR4A2 (11747474_a_at) / Fold change /veh NR4A2 (11747474_a_at) / RFU ABCC12 (11746883_a_at) / Fold change /veh ABCC12 (11746883_a_at) / RFU TMEM136 (11760407_x_at) / Fold change /veh TMEM136 (11760407_x_at) / RFU CLDN22 /// WWC2 (11732394_at) / Fold change /veh CLDN22 /// WWC2 (11732394_at) / RFU HLA-DPB1 (11760878_x_at) / Fold change /veh HLA-DPB1 (11760878_x_at) / RFU SPINT1 (11716480_a_at) / Fold change /veh SPINT1 (11716480_a_at) / RFU GAP43 (11754022_s_at) / Fold change /veh GAP43 (11754022_s_at) / RFU A4GNT (11735810_at) / Fold change /veh A4GNT (11735810_at) / RFU PRB3 (11715151_x_at) / Fold change /veh PRB3 (11715151_x_at) / RFU TUBB4B (11761932_at) / Fold change /veh TUBB4B (11761932_at) / RFU CAPN14 (11732068_a_at) / Fold change /veh CAPN14 (11732068_a_at) / RFU TMCC2 (11721928_a_at) / Fold change /veh TMCC2 (11721928_a_at) / RFU IRGQ (11745062_a_at) / Fold change /veh IRGQ (11745062_a_at) / RFU FAM174B (11720279_a_at) / Fold change /veh FAM174B (11720279_a_at) / RFU TMPRSS4 (11748680_a_at) / Fold change /veh TMPRSS4 (11748680_a_at) / RFU FAM212B (11763350_a_at) / Fold change /veh FAM212B (11763350_a_at) / RFU PLEKHG5 (11743358_a_at) / Fold change /veh PLEKHG5 (11743358_a_at) / RFU ZSCAN30 (11745921_a_at) / Fold change /veh ZSCAN30 (11745921_a_at) / RFU CMKLR1 (11741424_a_at) / Fold change /veh CMKLR1 (11741424_a_at) / RFU LOC101060620 /// MAPK8IP1 (11723275_at) / Fold change /veh LOC101060620 /// MAPK8IP1 (11723275_at) / RFU SPTSSB (11747773_x_at) / Fold change /veh SPTSSB (11747773_x_at) / RFU PRSS12 (11739890_at) / Fold change /veh PRSS12 (11739890_at) / RFU BIN1 (11741810_x_at) / Fold change /veh BIN1 (11741810_x_at) / RFU WNT11 (11732464_a_at) / Fold change /veh WNT11 (11732464_a_at) / RFU C10orf10 (11716521_a_at) / Fold change /veh C10orf10 (11716521_a_at) / RFU C5orf56 (11738089_at) / Fold change /veh C5orf56 (11738089_at) / RFU CYB561 (11721691_x_at) / Fold change /veh CYB561 (11721691_x_at) / RFU ANKRD19P (11752326_a_at) / Fold change /veh ANKRD19P (11752326_a_at) / RFU OR2T12 /// OR2T33 /// OR2T8 (11738714_s_at) / Fold change /veh OR2T12 /// OR2T33 /// OR2T8 (11738714_s_at) / RFU VCAN (11748164_a_at) / Fold change /veh VCAN (11748164_a_at) / RFU JSRP1 (11732532_at) / Fold change /veh JSRP1 (11732532_at) / RFU KRTAP10-11 (11738290_x_at) / Fold change /veh KRTAP10-11 (11738290_x_at) / RFU MYO3A (11730013_a_at) / Fold change /veh MYO3A (11730013_a_at) / RFU EBF3 (11725865_a_at) / Fold change /veh EBF3 (11725865_a_at) / RFU CAMK2N1 (11719241_x_at) / Fold change /veh CAMK2N1 (11719241_x_at) / RFU C5orf56 (11738088_a_at) / Fold change /veh C5orf56 (11738088_a_at) / RFU OLFML3 (11715873_a_at) / Fold change /veh OLFML3 (11715873_a_at) / RFU LOC100653217 /// NTM (11731650_a_at) / Fold change /veh LOC100653217 /// NTM (11731650_a_at) / RFU MAPK11 (11762145_a_at) / Fold change /veh MAPK11 (11762145_a_at) / RFU FIZ1 (11724087_x_at) / Fold change /veh FIZ1 (11724087_x_at) / RFU OASL (11726364_x_at) / Fold change /veh OASL (11726364_x_at) / RFU SOX15 (11748057_x_at) / Fold change /veh SOX15 (11748057_x_at) / RFU CD79A (11719716_a_at) / Fold change /veh CD79A (11719716_a_at) / RFU HIST1H1D (11736915_at) / Fold change /veh HIST1H1D (11736915_at) / RFU CASKIN2 (11723855_a_at) / Fold change /veh CASKIN2 (11723855_a_at) / RFU LOC730098 (11760151_x_at) / Fold change /veh LOC730098 (11760151_x_at) / RFU OR4N2 (11742367_at) / Fold change /veh OR4N2 (11742367_at) / RFU PRRT2 (11749266_a_at) / Fold change /veh PRRT2 (11749266_a_at) / RFU SNX32 (11753110_a_at) / Fold change /veh SNX32 (11753110_a_at) / RFU CDHR5 (11726645_a_at) / Fold change /veh CDHR5 (11726645_a_at) / RFU RCAN1 (11760418_a_at) / Fold change /veh RCAN1 (11760418_a_at) / RFU FAM167A (11723789_a_at) / Fold change /veh FAM167A (11723789_a_at) / RFU FAM26E (11764081_at) / Fold change /veh FAM26E (11764081_at) / RFU ISYNA1 (11749810_s_at) / Fold change /veh ISYNA1 (11749810_s_at) / RFU ACY1 (11761880_at) / Fold change /veh ACY1 (11761880_at) / RFU 11764098_at / Fold change /veh 11764098_at / RFU SAMD14 (11745864_x_at) / Fold change /veh SAMD14 (11745864_x_at) / RFU NPB (11741838_a_at) / Fold change /veh NPB (11741838_a_at) / RFU TMPRSS6 (11731388_a_at) / Fold change /veh TMPRSS6 (11731388_a_at) / RFU KRTAP10-2 (11738614_at) / Fold change /veh KRTAP10-2 (11738614_at) / RFU ARHGAP8 /// PRR5-ARHGAP8 (11727945_x_at) / Fold change /veh ARHGAP8 /// PRR5-ARHGAP8 (11727945_x_at) / RFU KRTAP5-7 /// NADSYN1 (11734609_at) / Fold change /veh KRTAP5-7 /// NADSYN1 (11734609_at) / RFU RASL12 (11751679_a_at) / Fold change /veh RASL12 (11751679_a_at) / RFU CDKN2B (11736163_a_at) / Fold change /veh CDKN2B (11736163_a_at) / RFU PRF1 (11729649_at) / Fold change /veh PRF1 (11729649_at) / RFU, ZNF638 /// ZNF638-IT1 / Fold change vs veh, ZNF638 /// ZNF638-IT1 / RFU, PANK3 / Fold change vs veh, PANK3 / RFU, SH3YL1 / Fold change vs veh, SH3YL1 / RFU, ZEB2 / Fold change vs veh, ZEB2 / RFU, NRIP1 / Fold change vs veh, NRIP1 / RFU, PTTG1IP / Fold change vs veh, PTTG1IP / RFU, CAPN2 / Fold change vs veh, CAPN2 / RFU, MED14 / Fold change vs veh, MED14 / RFU, SNORA58 / Fold change vs veh, SNORA58 / RFU, C1orf63 / Fold change vs veh, C1orf63 / RFU, LRRFIP1 / Fold change vs veh, LRRFIP1 / RFU, NDUFAF7 / Fold change vs veh, NDUFAF7 / RFU, SLC12A2 / Fold change vs veh, SLC12A2 / RFU, IBTK / Fold change vs veh, IBTK / RFU, ESF1 / Fold change vs veh, ESF1 / Fold change vs veh, TMEM50B / RFU, TAOK1 / Fold change vs veh, TAOK1 / RFU, ACBD3 / Fold change vs veh, ACBD3 / RFU, TMA16 / Fold change vs veh, TMA16 / RFU, RWDD3 / Fold change vs veh, RWDD3 / RFU, BCAT1 / Fold change vs veh, BCAT1 / RFU, EDEM3 / Fold change vs veh, EDEM3 / RFU, TMEM33 / Fold change vs veh, TMEM33 / RFU, WDR75 / Fold change vs veh, WDR75 / RFU, AHCTF1 / Fold change vs veh, AHCTF1 / RFU, TFRC / Fold change vs veh, TFRC / RFU, ZDHHC17 / Fold change vs veh, ZDHHC17 / RFU, NOM1 / Fold change vs veh, NOM1 / RFU, ARL8B / Fold change vs veh, ARL8B / RFU, ZBTB11 / Fold change vs veh, ZBTB11 / RFU, TAMM41 / Fold change vs veh, TAMM41 / RFU, KIAA1704 /// LOC100996395 / Fold change vs veh, KIAA1704 /// LOC100996395 / RFU, ING1 / Fold change vs veh, ING1 / RFU, TRMT61B / Fold change vs veh, TRMT61B / RFU, FUBP3 / Fold change vs veh, FUBP3 / RFU, TP53 / Fold change vs veh, TP53 / RFU, TNKS2 / Fold change vs veh, TNKS2 / RFU, ZFP14 / Fold change vs veh, ZFP14 / RFU, ACTR2 / Fold change vs veh, ACTR2 / RFU, PPP3R1 / Fold change vs veh, PPP3R1 / RFU, PIK3R1 / Fold change vs veh, PIK3R1 / RFU, HNRNPA1 / Fold change vs veh, HNRNPA1 / RFU, RNF170 / Fold change vs veh, RNF170 / RFU, ZNF28 / Fold change vs veh, ZNF28 / RFU, RNGTT / Fold change vs veh, RNGTT / RFU, OGT / Fold change vs veh, OGT / RFU, BRD1 / Fold change vs veh, BRD1 / RFU, MARS / Fold change vs veh, MARS / RFU, ZNF655 / Fold change vs veh, ZNF655 / RFU, FAHD1 / Fold change vs veh, FAHD1 / RFU, BDP1 / Fold change vs veh, BDP1 / RFU, LRRCC1 / Fold change vs veh, LRRCC1 / RFU, ARID1A / Fold change vs veh, ARID1A / RFU, ZNF146 / Fold change vs veh, ZNF146 / RFU, ZNF330 / Fold change vs veh, ZNF330 / RFU, GPN3 / Fold change vs veh, GPN3 / RFU, C9orf123 / Fold change vs veh, C9orf123 / RFU, N4BP2L2 / Fold change vs veh, N4BP2L2 / RFU, ARFIP1 / Fold change vs veh, ARFIP1 / RFU, FAM179B / Fold change vs veh, FAM179B / RFU, BCL10 / Fold change vs veh, BCL10 / RFU, UHRF1BP1L / Fold change vs veh, UHRF1BP1L / RFU, BET1 / Fold change vs veh, BET1 / RFU, CNOT2 / Fold change vs veh, CNOT2 / RFU, ZNF268 / Fold change vs veh, ZNF268 / Fold change vs veh, ZNF507 / RFU, DGCR2 / Fold change vs veh, DGCR2 / RFU, WDSUB1 / Fold change vs veh, WDSUB1 / Fold change vs veh, HSP90B1 /// MIR3652 / RFU, ADSS / Fold change vs veh, ADSS / RFU, GK / Fold change vs veh, GK / RFU, ZNF148 / Fold change vs veh, ZNF148 / RFU, TAF9 / Fold change vs veh, TAF9 / RFU, SLC1A5 / Fold change vs veh, SLC1A5 / RFU, SLMO2 / Fold change vs veh, SLMO2 / RFU, ABCC4 / Fold change vs veh, ABCC4 / RFU, LOC101060439 /// RAP1B / Fold change vs veh, LOC101060439 /// RAP1B / RFU, RFX7 / Fold change vs veh, RFX7 / RFU, GTPBP10 / Fold change vs veh, GTPBP10 / RFU, CNEP1R1 / Fold change vs veh, CNEP1R1 / RFU, BIVM-ERCC5 /// ERCC5 / Fold change vs veh, BIVM-ERCC5 /// ERCC5 / RFU, ILF3 / Fold change vs veh, ILF3 / RFU 11762660_at / Fold change /veh 11762660_at / RFU VCAN (11757783_s_at) / Fold change /veh VCAN (11757783_s_at) / RFU DDX43 (11728927_at) / Fold change /veh DDX43 (11728927_at) / RFU KRT8 (11758188_x_at) / Fold change /veh KRT8 (11758188_x_at) / RFU NKD1 (11759106_at) / Fold change /veh NKD1 (11759106_at) / RFU SRD5A1 (11742802_a_at) / Fold change /veh SRD5A1 (11742802_a_at) / RFU TPSAB1 /// TPSB2 (11721975_s_at) / Fold change /veh TPSAB1 /// TPSB2 (11721975_s_at) / RFU GSTM3 (11746129_a_at) / Fold change /veh GSTM3 (11746129_a_at) / RFU IL23R (11737362_x_at) / Fold change /veh IL23R (11737362_x_at) / RFU TMEM51 (11727254_a_at) / Fold change /veh TMEM51 (11727254_a_at) / RFU PIWIL2 (11732686_x_at) / Fold change /veh PIWIL2 (11732686_x_at) / RFU ORM1 (11744905_x_at) / Fold change /veh ORM1 (11744905_x_at) / RFU CCDC152 (11743942_at) / Fold change /veh CCDC152 (11743942_at) / RFU ECM1 (11717891_a_at) / Fold change /veh ECM1 (11717891_a_at) / RFU IL23R (11748794_a_at) / Fold change /veh IL23R (11748794_a_at) / RFU TNFAIP8L3 (11732012_x_at) / Fold change /veh TNFAIP8L3 (11732012_x_at) / RFU MBOAT4 (11741988_at) / Fold change /veh MBOAT4 (11741988_at) / RFU 11764193_at / Fold change /veh 11764193_at / RFU TMEM53 (11763286_at) / Fold change /veh TMEM53 (11763286_at) / RFU MAGEB2 (11727129_at) / Fold change /veh MAGEB2 (11727129_at) / RFU TMEM200A (11744735_a_at) / Fold change /veh TMEM200A (11744735_a_at) / RFU CCDC152 (11751479_a_at) / Fold change /veh CCDC152 (11751479_a_at) / RFU FAM211A (11726209_a_at) / Fold change /veh FAM211A (11726209_a_at) / RFU RGS16 (11746705_a_at) / Fold change /veh RGS16 (11746705_a_at) / RFU VCAN (11755009_s_at) / Fold change /veh VCAN (11755009_s_at) / RFU RHOB (11743442_s_at) / Fold change /veh RHOB (11743442_s_at) / RFU RGS16 (11720943_a_at) / Fold change /veh RGS16 (11720943_a_at) / RFU RGS16 (11720944_at) / Fold change /veh RGS16 (11720944_at) / RFU, VPS4B / Fold change vs veh, VPS4B / RFU, CREB1 / Fold change vs veh, CREB1 / RFU, DNAJC13 / Fold change vs veh, DNAJC13 / RFU, GNAQ / Fold change vs veh, GNAQ / RFU, CDK5R1 / Fold change vs veh, CDK5R1 / RFU, ZRANB3 / Fold change vs veh, ZRANB3 / RFU, CUL4A / Fold change vs veh, CUL4A / RFU, CCNY / Fold change vs veh, CCNY / RFU, UFL1 / Fold change vs veh, UFL1 / RFU, COG3 / Fold change vs veh, COG3 / RFU, DIAPH2 / Fold change vs veh, DIAPH2 / RFU, SKA2 / Fold change vs veh, SKA2 / RFU, AFF3 / Fold change vs veh, AFF3 / RFU, LMF1 / Fold change vs veh, LMF1 / RFU, IPO11 / Fold change vs veh, IPO11 / RFU, DFFB / Fold change vs veh, DFFB / RFU, FOXP1 / Fold change vs veh, FOXP1 / RFU, CARD8 / Fold change vs veh, CARD8 / RFU, STRN3 / Fold change vs veh, STRN3 / RFU, ADK / Fold change vs veh, ADK / RFU, RASSF2 / Fold change vs veh, RASSF2 / RFU, WIPF1 / Fold change vs veh, WIPF1 / RFU, LARP1B / Fold change vs veh, LARP1B / RFU, RASA1 / Fold change vs veh, RASA1 / RFU, RB1 / Fold change vs veh, RB1 / RFU, PPFIA1 / Fold change vs veh, PPFIA1 / RFU, MAT2A / Fold change vs veh, MAT2A / RFU, CCT5 / Fold change vs veh, CCT5 / RFU, WDR92 / Fold change vs veh, WDR92 / RFU, CUX1 / Fold change vs veh, CUX1 / RFU, TTC7A / Fold change vs veh, TTC7A / RFU, TMEM135 / Fold change vs veh, TMEM135 / RFU, DEPTOR / Fold change vs veh, DEPTOR / RFU, CPM / Fold change vs veh, CPM / RFU, DNAJB6 / Fold change vs veh, DNAJB6 / RFU, CACNA2D3 / Fold change vs veh, CACNA2D3 / RFU, DTX4 / Fold change vs veh, DTX4 / RFU, TFCP2 / Fold change vs veh, TFCP2 / RFU, GMCL1 /// GMCL1P1 / Fold change vs veh, GMCL1 /// GMCL1P1 / RFU, AEBP2 / Fold change vs veh, AEBP2 / RFU, SNHG1 /// SNORD22 /// SNORD25 /// SNORD26 /// SNORD27 /// SNORD28 /// SNORD29 /// SNORD31 / Fold change vs veh, SNHG1 /// SNORD22 /// SNORD25 /// SNORD26 /// SNORD27 /// SNORD28 /// SNORD29 /// SNORD31 / Fold change (Aza/veh), C12orf56 (ProbeSet 11735607_a_at) / Fold change (ACY-1035/veh), C12orf56 (ProbeSet 11735607_a_at) / Fold change (Aza/veh), FGFR1OP (ProbeSet 11751329_s_at) / Fold change (ACY-1035/veh), FGFR1OP (ProbeSet 11751329_s_at) / Fold change (Aza/veh), VPS36 (ProbeSet 11739960_a_at) / Fold change (ACY-1035/veh), VPS36 (ProbeSet 11739960_a_at) / RFU SYPL1 (11715823_x_at) / Fold change /veh SYPL1 (11715823_x_at) / RFU IGFBP7 (11715501_s_at) / Fold change /veh IGFBP7 (11715501_s_at) / RFU REEP3 (11722064_at) / Fold change /veh REEP3 (11722064_at) / RFU IGLL1 (11728026_x_at) / Fold change /veh IGLL1 (11728026_x_at): dose or concentration left out as unconfirmed
Conditions: ProbeSet 11725902_s_at; LIST D

For `Nc1ncn([C@@H]2O[C@H](CO)[C@@H](O)[C@H]2O)c(=O)n1` [azacitidine], the “RFU, TMEM135” value was 62.37 RFU.

— article PMC5218480 (PLoS ONE, 2017)
